Measurements reported in patent US20090099237A1, “Methods of treating inflammatory diseases” (Roche Palo Alto LLC, priority 2007, published 2009).

Experiments:
Test in all cases: KinomeScan kinase profiling
Type in all cases: binding
Details in all cases: 10 μM
[1] = biological target: T1, ROS1 (Homo sapiens, UniProt P08922)
T1 construct: purchased Ambit Biosciences
Source text: (§1) The selectivity of a given CK1α, CK1α-CK1δ, CK1α-CK1ε or CK1α-CK1δ-CK1ε inhibitor compound can be determined by testing the compound against a panel of known kinases. An example of such a kinase profiling technology is the “KinomeScan” from Ambit Biosciences in which compounds can be screened for their modulatory activities against more than 200 known kinases.

[2] = biological target: p38-gamma (Homo sapiens, UniProt P53778)
Source text: as §1

[3] = biological target: T2, RPS6KA5 (Homo sapiens, UniProt O75582)
T2 construct: purchased Ambit Biosciences
Source text: as §1

[4] = biological target: T3, CAMK1G (Homo sapiens, UniProt Q96NX5)
T3 construct: purchased Ambit Biosciences
Source text: as §1

[5] = biological target: T4, STK36 (Homo sapiens, UniProt Q9NRP7)
T4 construct: purchased Ambit Biosciences
Source text: as §1

[6] = biological target: MAP3K4 (Homo sapiens, UniProt Q9Y6R4)
Source text: as §1

[7] = biological target: T5, FLT4 (Homo sapiens, UniProt P35916)
T5 construct: purchased Ambit Biosciences
Source text: as §1

[8] = biological target: T6, DMPK (Homo sapiens, UniProt Q09013)
T6 construct: purchased Ambit Biosciences (San Diego, Calif.)
Source text: as §1

[9] = biological target: PDPK1 (Homo sapiens, UniProt O15530)
Chain of PDPK1 (O15530 whole entry): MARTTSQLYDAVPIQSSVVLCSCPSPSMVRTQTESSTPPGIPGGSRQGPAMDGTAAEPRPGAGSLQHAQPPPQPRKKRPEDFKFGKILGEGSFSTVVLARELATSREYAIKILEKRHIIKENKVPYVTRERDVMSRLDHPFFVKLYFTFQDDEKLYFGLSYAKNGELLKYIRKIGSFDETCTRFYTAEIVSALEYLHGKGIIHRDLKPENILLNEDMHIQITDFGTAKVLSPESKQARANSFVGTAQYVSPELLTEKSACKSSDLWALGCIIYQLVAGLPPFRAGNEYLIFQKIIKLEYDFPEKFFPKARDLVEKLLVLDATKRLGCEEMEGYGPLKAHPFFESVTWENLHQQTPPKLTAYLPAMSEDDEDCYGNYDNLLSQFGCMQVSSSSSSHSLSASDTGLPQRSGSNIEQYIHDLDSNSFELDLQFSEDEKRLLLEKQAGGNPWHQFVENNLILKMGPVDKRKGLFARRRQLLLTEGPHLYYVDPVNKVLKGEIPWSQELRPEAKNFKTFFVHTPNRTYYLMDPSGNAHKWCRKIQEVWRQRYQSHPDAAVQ
Source text: as §1

[10] = biological target: T7, CLK1 (Homo sapiens, UniProt P49759)
T7 construct: purchased Ambit Biosciences (San Diego, Calif.)
Source text: as §1

[11] = biological target: T8, CLK3 (Homo sapiens, UniProt P49761)
T8 construct: purchased Ambit Biosciences (San Diego, Calif.)
Source text: as §1

[12] = biological target: MAP4K5 (Homo sapiens, UniProt Q9Y4K4)
Source text: as §1

[13] = biological target: T9, ERBB4 (Homo sapiens, UniProt Q15303)
T9 construct: purchased Ambit Biosciences
Source text: as §1

[14] = biological target: T10, TRKA (Homo sapiens, UniProt P04629)
T10 construct: purchased Ambit Biosciences
T10 sequence (P04629 33-796): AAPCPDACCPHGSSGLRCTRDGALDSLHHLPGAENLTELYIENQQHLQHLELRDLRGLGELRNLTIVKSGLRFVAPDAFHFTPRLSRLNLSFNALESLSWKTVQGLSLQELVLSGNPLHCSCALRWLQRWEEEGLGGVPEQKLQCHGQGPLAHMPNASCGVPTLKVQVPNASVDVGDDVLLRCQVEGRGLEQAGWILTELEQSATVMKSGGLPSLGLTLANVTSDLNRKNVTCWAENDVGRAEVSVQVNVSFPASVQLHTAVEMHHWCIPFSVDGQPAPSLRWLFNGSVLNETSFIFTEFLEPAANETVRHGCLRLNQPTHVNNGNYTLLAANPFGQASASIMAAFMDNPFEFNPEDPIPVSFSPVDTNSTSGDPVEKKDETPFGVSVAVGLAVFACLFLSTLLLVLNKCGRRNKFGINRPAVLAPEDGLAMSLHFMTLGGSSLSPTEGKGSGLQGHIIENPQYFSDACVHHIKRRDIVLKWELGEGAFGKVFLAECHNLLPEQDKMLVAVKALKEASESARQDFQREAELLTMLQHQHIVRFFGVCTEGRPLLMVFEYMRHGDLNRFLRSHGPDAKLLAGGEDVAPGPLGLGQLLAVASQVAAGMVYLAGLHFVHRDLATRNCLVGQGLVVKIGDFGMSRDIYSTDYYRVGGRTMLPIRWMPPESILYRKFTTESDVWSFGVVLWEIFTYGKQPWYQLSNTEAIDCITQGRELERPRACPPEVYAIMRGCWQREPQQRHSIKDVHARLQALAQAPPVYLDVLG
Source text: as §1

[15] = biological target: T11, CAMK2D (Homo sapiens, UniProt Q13557)
T11 construct: purchased Ambit Biosciences
Source text: as §1

[16] = biological target: PHKG2 (Homo sapiens, UniProt P15735)
Source text: as §1

[17] = biological target: T12, ULK3(mouse) (Mus musculus, UniProt Q3U3Q1)
T12 construct: purchased Ambit Biosciences
Source text: as §1

[18] = biological target: T13, AAK1 (Homo sapiens, UniProt Q2M2I8)
T13 construct: purchased Ambit Biosciences
Source text: as §1

[19] = biological target: T14, PIM2 (Homo sapiens, UniProt Q9P1W9)
T14 construct: purchased Ambit Biosciences
Source text: as §1

[20] = biological target: PAK3 (Homo sapiens, UniProt O75914)
Source text: as §1

[21] = biological target: T15, ERK2 (Homo sapiens, UniProt P28482)
T15 construct: purchased Ambit Biosciences
Source text: as §1

[22] = biological target: T16, PTK2B (Homo sapiens, UniProt Q14289)
T16 construct: purchased Ambit Biosciences
T16 sequence (Q14289 whole entry): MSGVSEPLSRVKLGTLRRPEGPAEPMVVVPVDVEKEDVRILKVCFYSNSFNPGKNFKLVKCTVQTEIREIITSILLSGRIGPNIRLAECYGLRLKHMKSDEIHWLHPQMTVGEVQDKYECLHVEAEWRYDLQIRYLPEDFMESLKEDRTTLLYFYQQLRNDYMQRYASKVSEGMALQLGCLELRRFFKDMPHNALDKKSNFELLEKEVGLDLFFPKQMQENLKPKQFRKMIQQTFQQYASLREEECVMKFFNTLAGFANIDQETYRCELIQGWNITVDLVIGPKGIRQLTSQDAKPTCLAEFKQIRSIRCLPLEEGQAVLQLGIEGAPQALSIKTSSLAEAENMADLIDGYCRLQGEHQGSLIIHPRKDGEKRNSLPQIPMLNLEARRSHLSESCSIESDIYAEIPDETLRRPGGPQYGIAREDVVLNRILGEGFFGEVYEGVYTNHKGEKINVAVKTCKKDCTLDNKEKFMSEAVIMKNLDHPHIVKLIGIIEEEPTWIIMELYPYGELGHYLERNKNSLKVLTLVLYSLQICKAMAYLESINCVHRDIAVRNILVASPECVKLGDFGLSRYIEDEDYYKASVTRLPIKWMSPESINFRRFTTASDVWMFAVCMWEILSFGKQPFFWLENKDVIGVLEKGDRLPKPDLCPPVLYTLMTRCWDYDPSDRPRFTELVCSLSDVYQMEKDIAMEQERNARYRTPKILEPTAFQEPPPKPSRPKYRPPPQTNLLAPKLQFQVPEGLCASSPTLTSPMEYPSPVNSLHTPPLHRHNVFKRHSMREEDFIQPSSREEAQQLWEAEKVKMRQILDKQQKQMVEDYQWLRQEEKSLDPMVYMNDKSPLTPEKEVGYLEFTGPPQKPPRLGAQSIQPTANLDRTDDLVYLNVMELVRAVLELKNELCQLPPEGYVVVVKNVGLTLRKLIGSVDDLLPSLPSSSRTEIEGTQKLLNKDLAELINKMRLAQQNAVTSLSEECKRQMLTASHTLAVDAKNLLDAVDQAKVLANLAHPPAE
Source text: as §1

[23] = biological target: T17, JNK3 (Homo sapiens, UniProt P53779)
T17 construct: purchased Ambit Biosciences
T17 sequence (P53779 whole entry): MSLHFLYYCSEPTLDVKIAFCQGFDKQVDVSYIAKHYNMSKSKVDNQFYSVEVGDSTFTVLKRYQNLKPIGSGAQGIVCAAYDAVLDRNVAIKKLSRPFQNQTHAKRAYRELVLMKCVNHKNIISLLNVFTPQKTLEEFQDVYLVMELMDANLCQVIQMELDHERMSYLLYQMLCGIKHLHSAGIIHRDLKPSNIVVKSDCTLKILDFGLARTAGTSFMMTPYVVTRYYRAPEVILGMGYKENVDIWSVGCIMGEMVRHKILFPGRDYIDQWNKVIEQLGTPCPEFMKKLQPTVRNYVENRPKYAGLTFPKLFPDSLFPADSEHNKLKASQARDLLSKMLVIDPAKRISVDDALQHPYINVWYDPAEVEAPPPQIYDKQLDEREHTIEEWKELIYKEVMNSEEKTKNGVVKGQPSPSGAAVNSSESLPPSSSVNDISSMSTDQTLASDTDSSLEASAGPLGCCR
Source text: as §1

[24] = biological target: T18, RAF1 (Homo sapiens, UniProt P04049)
T18 construct: purchased Ambit Biosciences
Source text: as §1

[25] = biological target: T19, ITK (Homo sapiens, UniProt Q08881)
T19 construct: purchased Ambit Biosciences
Source text: as §1

[26] = biological target: T20, CAMK1D (Homo sapiens, UniProt Q8IU85)
T20 construct: purchased Ambit Biosciences
T20 sequence (Q8IU85 whole entry): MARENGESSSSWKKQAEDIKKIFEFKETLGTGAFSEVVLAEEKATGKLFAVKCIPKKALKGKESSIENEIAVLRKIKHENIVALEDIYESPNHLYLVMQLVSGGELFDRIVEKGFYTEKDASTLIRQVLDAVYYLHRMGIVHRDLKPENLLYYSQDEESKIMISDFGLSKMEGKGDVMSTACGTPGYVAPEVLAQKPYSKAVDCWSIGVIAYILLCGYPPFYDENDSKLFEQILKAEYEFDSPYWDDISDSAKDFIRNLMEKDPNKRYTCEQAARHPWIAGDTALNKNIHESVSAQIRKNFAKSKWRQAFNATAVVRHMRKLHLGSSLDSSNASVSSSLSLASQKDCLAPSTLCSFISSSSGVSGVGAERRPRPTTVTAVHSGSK
Source text: as §1

[27] = biological target: T21, BMX (Homo sapiens, UniProt P51813)
T21 construct: purchased Ambit Biosciences
Source text: as §1

[28] = biological target: T22, PTK2 (Homo sapiens, UniProt Q05397)
T22 construct: purchased Ambit Biosciences
Source text: as §1

[29] = biological target: MYLK2 (Homo sapiens, UniProt Q9H1R3)
Source text: as §1

[30] = biological target: T23, CAMKK2 (Homo sapiens, UniProt Q96RR4)
T23 construct: purchased Ambit Biosciences (San Diego, Calif.)
Source text: as §1

[31] = biological target: T24, ABL2 (Homo sapiens, UniProt P42684)
T24 construct: purchased Ambit Biosciences
Source text: as §1

[32] = biological target: PDGFRA (Homo sapiens, UniProt P16234)
Source text: as §1

[33] = biological target: T25, CLK4 (Homo sapiens, UniProt Q9HAZ1)
T25 construct: purchased Ambit Biosciences (San Diego, Calif.)
Source text: as §1

[34] = biological target: T26, BTK (Homo sapiens, UniProt Q06187)
T26 construct: purchased Ambit Biosciences
Source text: as §1

[35] = biological target: T27, TTK (Homo sapiens, UniProt P33981)
T27 construct: purchased Ambit Biosciences
T27 sequence (P33981 whole entry): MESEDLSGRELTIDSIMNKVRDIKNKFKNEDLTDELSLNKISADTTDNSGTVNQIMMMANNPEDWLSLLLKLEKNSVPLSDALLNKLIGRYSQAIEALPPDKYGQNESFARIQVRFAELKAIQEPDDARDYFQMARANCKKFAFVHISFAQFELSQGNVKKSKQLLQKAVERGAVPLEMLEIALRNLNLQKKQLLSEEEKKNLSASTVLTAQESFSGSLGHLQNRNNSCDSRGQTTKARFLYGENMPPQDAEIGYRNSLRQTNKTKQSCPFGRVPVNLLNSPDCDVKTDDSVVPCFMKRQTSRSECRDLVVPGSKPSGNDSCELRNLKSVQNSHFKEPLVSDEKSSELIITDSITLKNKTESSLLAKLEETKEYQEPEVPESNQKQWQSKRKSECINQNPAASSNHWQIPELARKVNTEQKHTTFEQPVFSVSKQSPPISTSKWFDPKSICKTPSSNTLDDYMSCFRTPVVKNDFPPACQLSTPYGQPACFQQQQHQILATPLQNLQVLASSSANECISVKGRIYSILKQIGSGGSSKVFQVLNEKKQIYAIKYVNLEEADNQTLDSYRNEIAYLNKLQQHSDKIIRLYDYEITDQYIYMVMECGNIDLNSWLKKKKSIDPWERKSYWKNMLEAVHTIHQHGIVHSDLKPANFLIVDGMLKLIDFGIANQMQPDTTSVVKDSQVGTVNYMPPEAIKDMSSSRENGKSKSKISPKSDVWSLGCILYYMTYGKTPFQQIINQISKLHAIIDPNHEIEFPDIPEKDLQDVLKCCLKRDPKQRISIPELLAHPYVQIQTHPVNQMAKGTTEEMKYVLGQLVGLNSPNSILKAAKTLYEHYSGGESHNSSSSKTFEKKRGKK
Source text: as §1

[36] = biological target: T28, EPHA8 (Homo sapiens, UniProt P29322)
T28 construct: purchased Ambit Biosciences (San Diego, Calif.)
T28 sequence (P29322 28-1005): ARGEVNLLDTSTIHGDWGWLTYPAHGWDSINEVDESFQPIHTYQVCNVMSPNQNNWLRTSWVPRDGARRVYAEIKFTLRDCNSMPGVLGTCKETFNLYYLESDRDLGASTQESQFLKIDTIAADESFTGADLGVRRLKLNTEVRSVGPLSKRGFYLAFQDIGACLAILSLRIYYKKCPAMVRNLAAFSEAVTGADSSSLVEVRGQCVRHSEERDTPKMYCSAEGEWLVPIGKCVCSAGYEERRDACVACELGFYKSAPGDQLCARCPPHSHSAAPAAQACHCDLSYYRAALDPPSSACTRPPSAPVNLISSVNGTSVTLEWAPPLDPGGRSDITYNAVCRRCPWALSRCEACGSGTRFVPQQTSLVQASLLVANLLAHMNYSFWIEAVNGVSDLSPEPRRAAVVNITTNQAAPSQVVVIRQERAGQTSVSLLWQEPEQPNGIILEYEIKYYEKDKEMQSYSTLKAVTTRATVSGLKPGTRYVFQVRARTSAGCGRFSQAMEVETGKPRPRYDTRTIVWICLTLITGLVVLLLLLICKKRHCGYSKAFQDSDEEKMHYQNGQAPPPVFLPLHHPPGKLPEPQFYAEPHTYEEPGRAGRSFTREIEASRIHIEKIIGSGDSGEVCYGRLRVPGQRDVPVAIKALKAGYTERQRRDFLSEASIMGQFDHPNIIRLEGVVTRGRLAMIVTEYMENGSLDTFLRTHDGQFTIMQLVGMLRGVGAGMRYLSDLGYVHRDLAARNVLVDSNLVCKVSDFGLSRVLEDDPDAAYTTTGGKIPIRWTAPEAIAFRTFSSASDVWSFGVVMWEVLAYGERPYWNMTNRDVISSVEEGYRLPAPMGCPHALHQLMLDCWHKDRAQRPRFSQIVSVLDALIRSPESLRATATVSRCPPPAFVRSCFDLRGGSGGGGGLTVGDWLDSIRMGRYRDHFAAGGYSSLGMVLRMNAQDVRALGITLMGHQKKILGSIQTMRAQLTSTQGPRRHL
Source text: as §1

[37] = biological target: T29, GAK (Homo sapiens, UniProt O14976)
T29 construct: purchased Ambit Biosciences
Source text: as §1

[38] = biological target: NEK9 (Homo sapiens, UniProt Q8TD19)
Source text: as §1

[39] = biological target: T30, CAMK2B (Homo sapiens, UniProt Q13554)
T30 construct: purchased Ambit Biosciences
Source text: as §1

SMILES | % Binding [1] [%] | % Binding [2] [%] | % Binding [3] [%] | % Binding [4] [%] | % Binding [5] [%] | % Binding [6] [%] | % Binding [7] [%] | % Binding [8] [%] | % Binding [9] [%] | % Binding [10] [%] | % Binding [11] [%] | % Binding [12] [%] | % Binding [13] [%] | % Binding [14] [%] | % Binding [15] [%] | % Binding [16] [%] | % Binding [17] [%] | % Binding [18] [%] | % Binding [19] [%] | % Binding [20] [%] | also measured
COc1cc(OC)c(C=C2C(O)=Nc3ccccc32)c(OC)c1 [IC261, 3-[(2,4,6-trimethoxyphenyl)methylidenyl]-indolin-2-one] | <50 | <50 | <50 | <50 | <50 | <50 | <50 | <50 | <50 | <50 | <50 | <50 | <50 | <50 | <50 | <50 | <50 | <50 | <50 | <50 | % Binding [21]: <50%; % Binding [22]: <50%; % Binding [23]: <50%; % Binding [24]: <50%; % Binding [25]: <50%; % Binding [26]: <50%; % Binding [27]: <50%; % Binding [28]: <50%; % Binding [29]: <50%; % Binding [30]: <50%; % Binding [31]: <50%; % Binding [32]: <50%; % Binding [33]: <50%; % Binding [34]: <50%; % Binding [35]: <50%; % Binding [36]: <50%; % Binding [37]: <50%; % Binding [38]: <50%; % Binding [39]: <50%
NC(=O)c1cc(-c2ccncc2)c[nH]1 [Compound A, 4-Pyridin-4-yl-1H-pyrrole-2-carboxylic acid amide] | <50 | <50 | <50 | <50 | <50 | <50 | <50 | <50 | <50 | 97 | <50 | <50 | <50 | <50 | <50 | <50 | <50 | 69 | <50 | <50 | % Binding [21]: <50%; % Binding [22]: <50%; % Binding [23]: <50%; % Binding [24]: <50%; % Binding [25]: <50%; % Binding [26]: <50%; % Binding [27]: <50%; % Binding [28]: <50%; % Binding [29]: <50%; % Binding [30]: <50%; % Binding [31]: <50%; % Binding [32]: <50%; % Binding [33]: 97%; % Binding [34]: <50%; % Binding [35]: <50%; % Binding [36]: <50%; % Binding [37]: <50%; % Binding [38]: <50%; % Binding [39]: <50%
